Source: patent US7635693B2, “Methods for preventing and treating cancer using N-thiolated β-lactam compounds and analogs thereof” (University of South Florida, priority 2002, dated 2009)

Tests used:
[1] = tested on: PARP; experiment: PARP cleavage, Western blot, Jurkat T cells; type: cell-based, human
Source text: A library of β-lactam analogs was screened for their ability to induce apoptosis. […] This is followed by preparation of cell lysates and measurement of apoptosis-specific caspase-3 activation (by cell-free caspase-3 activity assay) and PARP cleavage (by Western blotting).

[2] = tested on: BID; settings: Jurkat T cells, 50 μM
Procedure: Human Jurkat T cells were cultured in RPMI 1640, supplemented with 10% fetal calf serum, 100 units/ml of penicillin and 100 μg/ml of streptomycin. Human breast cancer MCF-7 and MDA-MB-231 cells, human prostate cancer PC-3 cells, and human head-and-neck cancer PCI-13 cells were grown in Dulbecco's modified Eagle's medium containing 10% fetal calf serum, penicillin and streptomycin. All the cell lines were maintained in a 5% CO2 atmosphere at 37° C. A whole cell extract was prepared as described previously (An et al., 1998). Briefly, cells are harvested, washed with PBS and homogenized in a lysis buffer (50 mM Tris-HCl, pH 8.0, 5 mM EDTA, 150 mM NaCl, 0.5% NP-40, 0.5 mM PMSF, and 0.5 mM dithiothreitol) for 30 min at 4° C. After that, the lysates are centrifuged at 14,000×g for 30 min and the supernatants are collected as whole cell extracts. Equal amounts of protein extract (50 μg) are resolved by SDS-polyacrylamide gel electrophoresis and then transferred to a nitrocellulose membrane (Schleicher & Schuell, Keene, N H) using a Semi-Dry Transfer System (BIO-RAD; Hercules, Calif.). The enhanced chemiluminescence (ECL) Western Blot analysis is then performed using specific antibodies to the proteins of interest.

[3] = tested on: Jurkat T cells; experiment: Flow cytometry cell cycle distribution and sub-G1 population, Jurkat T cells; type: cell-based, human; settings: 50 μM
Procedure: Cell Death Differ 5:1062-75. At each time point, cells are harvested, counted, and washed twice with PBS. Cells (5×10^6) are suspended in 0.5 ml PBS, fixed in 5 ml of 70% ethanol for at least 2 h at −20° C., centrifuged, resuspended again in 1 ml of propidium iodide staining solution (50 μg propidium iodide, 100 units RNase A and 1 mg glucose per ml PBS), and incubated at room temperature for 30 minutes. The cells are then analyzed with FACScan (Becton Dickinson Immunocytometry, CA), ModFit LT and WinMDI V.2.8 cell cycle analysis software (Verity Software; Topsham, Me.). The cell cycle distribution is shown as the percentage of cells containing G1, S, G2, and M DNA judged by propidium iodide staining. The apoptotic population is determined as the percentage of cells with sub-G1 (<G1) DNA content.

[4] = tested on: MDA-MB-231 cells; experiment: MTT assay, MDA-MB-231; type: cell-based, human; settings: MDA-MB-231, 50 μM, 24 hours
Procedure: MCF-7, MDA-MB-231, PC-3 and PCI-13 cells were grown to 50% confluency in a 24 well plate. […] A stock 5 mg/ml of MTT in serum-free media was then added to the cell cultures at a final concentration of 1 mg/ml, followed by a 3 hour incubation at 37° C. After cells crystallized, the media was removed and DMSO added to dissolve the metabolized MTT product. The absorbance was then measured on a Wallac Victor 1420 Multilabel counter at […].

COC1C(=O)N(SC)C1c1ccccc1Cl (racemic) [lactam 1]
PARP cleavage ([1]; 10 μM, 24 h): induced apoptosis-specific PARP cleavage fragment p85 | levels of PARP cleavage fragment p85 ([1]; 25 μM, 24 h): further increased | time at which PARP cleavage was first detected ([1]; 30 μM): 3 h | time at which PARP cleavage fragment p85 appears ([1]; 50 μM): 4 h | PARP cleavage ([1]; 50 μM, 8 hours): greatest potency | level of PARP cleavage relative to that by 50 μM of lactam 47 ([1]; 50 μM, 12 h): ~50% | PARP degradation ([1]; 50 μM, 24 h): PARP degradation was further increased | p85 PARP fragment ([1]; 8 hours, 20 μM): Low levels | p85 PARP fragment ([1]; 8 hours, 50 μM): significantly increased | intact PARP protein and p85 PARP fragment ([1]; 8 hours, 60 μM): almost complete degradation | p85 PARP fragment ([1]; 8 hours, 30 and 40 μM): further increased | time at which 15-kDa fragment of Bid was first observed [2]: 2 h | time of peak of 15-kDa fragment of Bid [2]: 6 h | apoptotic sub-G1 cell population ([3]; 2 to 4 hours): 2% | increase in S phase population ([3]; 2 to 4 hours): 2-3% | increase in S phase population ([3]; 6 to 12 hours): up to 13% | sub-G1 population ([3]; 6 to 12 hours): 5-16% | increase in S phase population ([3]; 5 hours): 21% | sub-G1 apoptotic population ([3]; 5 hours): 14% | sub-G1 population ([3]; 24 h): 30% | increase in S population ([3]; 24 hour): 20% | decrease of cellular viability (MTT) [4]: 80%
